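Cultured in 96-well plates, cells were exposed to test compound for 48 hours across five concentrations. Here, GI50 denotes the concentration required for 50% inhibition of growth. Definition used: TGI = concentration required for complete inhibition of growth.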
Tests used:
Test in all cases: NCI tumour cell line growth inhibition, 48 h
COLO 205 colon = system: COLO 205 colon
HCC-2998 colon = system: HCC-2998 colon
HCT-116 colon = system: HCT-116 colon
HOP-92 NSCLC = system: HOP-92 NSCLC
HT29 colon = system: HT29 colon
NCI-H460 lung = system: NCI-H460 lung
NCI/ADR-RES ovarian = system: NCI/ADR-RES ovarian
OVCAR-3 ovarian = system: OVCAR-3 ovarian
OVCAR-5 ovarian = system: OVCAR-5 ovarian
SW-620 colon = system: SW-620 colon

| Structure (SMILES) | GI50 (COLO 205 colon) [nM] | TGI (COLO 205 colon) [µM] | GI50 (HCC-2998 colon) [nM] | TGI (HCC-2998 colon) [µM] | GI50 (HCT-116 colon) [nM] | TGI (HCT-116 colon) [µM] | GI50 (HOP-92 NSCLC) [µM] | TGI (HOP-92 NSCLC) [µM] | GI50 (HT29 colon) [nM] | TGI (HT29 colon) [µM] | GI50 (NCI-H460 lung) [µM] | TGI (NCI-H460 lung) [µM] | GI50 (NCI/ADR-RES ovarian) [µM] | TGI (NCI/ADR-RES ovarian) [µM] | GI50 (OVCAR-3 ovarian) [nM] | TGI (OVCAR-3 ovarian) [µM] | GI50 (OVCAR-5 ovarian) [µM] | TGI (OVCAR-5 ovarian) [µM] | GI50 (SW-620 colon) [µM] | TGI (SW-620 colon) [µM] |
| --- | --- | --- | --- | --- | --- | --- | --- | --- | --- | --- | --- | --- | --- | --- | --- | --- | --- | --- | --- | --- |
| COc1ccc2cc(Cn3cc[n+](Cc4ccc5ccccc5c4)c3)ccc2c1 | 1440 | 3.28 | 2110 | 5.28 | 2230 | 7.43 | 0.672 | 3.33 | 1760 | 8.23 | 3.24 | 12.7 | > 100 | > 100 | 1620 | 4.01 | 2.7 | 12.5 | 3.12 | 14.1 |
| CCCC(=O)Nc1ccc2c(c1)CN1C(=O)c3ccccc3C1=N2 | – | > 100 | – | > 100 | – | > 100 | – | > 100 | – | > 100 | – | > 100 | – | > 100 | – | > 100 | – | > 100 | – | > 100 |
| Cc1nn(-c2ccccc2)c2nc3c(nc12)C1=NCCN1C(c1ccc(Cl)cc1)N3 (stereo not given) | 1840 | 3.36 | 1920 | 3.49 | 2160 | 4.86 | 2 | 9.69 | 2500 | 5.96 | 2.19 | 5.03 | 13.4 | 32 | 2630 | 7.18 | 11.4 | 24.3 | 1.9 | 3.96 |
| COc1ccc2c(c1)/C(=C\c1c(Cl)n(C)c3ccccc13)C(=O)N2 | 721 | 4.36 | 306 | 1.08 | 1290 | > 28.6 | 5.5 | 29.4 | 574 | > 100 | 0.459 | 15.9 | 0.629 | 2.03 | 633 | 1.91 | 3.94 | 15.3 | 1.13 | 17.1 |
| CSC1=Nc2c(c(C)c(C)n2COC(CO)CO)C2=NC(=O)CC(C)N12 (stereo not given) | > 100000 | > 100 | > 100000 | > 100 | > 100000 | > 100 | > 100 | > 100 | > 100000 | > 100 | > 100 | > 100 | > 100 | > 100 | > 100000 | > 100 | > 100 | > 100 | > 100 | > 100 |
| Cc1c(-c2nnc(-c3ccc(F)cc3)o2)nnn1-c1ccnc2c(C(F)(F)F)cccc12 | 42100 | > 100 | > 100000 | > 100 | 16700 | > 100 | 14.7 | 76.9 | 34400 | > 100 | 30.4 | > 100 | 40.3 | > 100 | 28700 | > 100 | 66.7 | > 100 | 31.9 | > 100 |

— PubChem BioAssay (NCI)
